As usually defined, the IC50 is the concentration that inhibits the measured activity by half. What is called EC50 is the concentration needed to bring the measured effect to its halfway point. A lower EC50 goes with greater potency. A word on the half-life: it is the time needed for the level to fall by half in the phase considered. What is called Tmax is the time from dosing to the highest level. Usually bioavailability stands for dose-corrected exposure relative to a reference, in per cent. A low value points to little systemic uptake.

The values that follow come from ChEMBL document CHEMBL1145148, “Discovery of (2S)-N-[(1R)-2-[4-cyclohexyl-4-[[(1,1-dimethylethyl)amino]carbonyl]-1-piperidinyl]-1-[(4-fluorophenyl)methyl]-2-oxoethyl]-4-methyl-2-piperazinecarboxamide (MB243), a potent and selective melanocortin subtype-4 receptor agonist” (Bioorg Med Chem Lett, 2005).

Values joined by “and” are separate entries in the source; they are usually repeats but may differ in a detail not shown here. Equal entries are not always repeated.

The target of data set [1] is T1, Melanocortin receptor 3 (Homo sapiens, UniProt P41968). The experiment in a line: Concentration of compound at 50% maximum cAMP accumulation at human melanocortin-3 receptor. It is filed as functional. For orientation: cAMP levels reflect the balance of adenylyl cyclase and phosphodiesterase activity.
T1 sequence (P41968 whole entry): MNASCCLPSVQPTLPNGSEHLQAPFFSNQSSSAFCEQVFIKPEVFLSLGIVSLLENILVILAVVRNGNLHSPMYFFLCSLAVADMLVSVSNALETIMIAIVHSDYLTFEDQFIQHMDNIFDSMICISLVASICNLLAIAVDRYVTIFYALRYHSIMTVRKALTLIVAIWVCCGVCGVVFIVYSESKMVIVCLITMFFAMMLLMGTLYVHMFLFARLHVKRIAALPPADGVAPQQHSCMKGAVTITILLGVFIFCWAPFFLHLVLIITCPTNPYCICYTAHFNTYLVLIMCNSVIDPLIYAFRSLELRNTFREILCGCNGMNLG
The target of data set [2] is T2, Melanocortin receptor 5 (Homo sapiens, UniProt P33032). The experiment in a line: Concentration of compound at 50% maximum cAMP accumulation at human melanocortin-5 receptor. It is filed as functional.
T2 sequence (P33032 whole entry): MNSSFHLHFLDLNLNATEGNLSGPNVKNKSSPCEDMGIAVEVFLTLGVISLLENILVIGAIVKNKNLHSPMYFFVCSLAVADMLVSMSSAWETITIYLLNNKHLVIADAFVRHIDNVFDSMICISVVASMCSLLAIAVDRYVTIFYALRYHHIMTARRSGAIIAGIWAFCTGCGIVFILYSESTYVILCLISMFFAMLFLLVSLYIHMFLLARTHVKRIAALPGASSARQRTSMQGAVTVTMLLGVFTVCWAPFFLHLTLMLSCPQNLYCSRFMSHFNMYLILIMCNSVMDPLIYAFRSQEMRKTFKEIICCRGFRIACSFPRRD
For data set [3], the target named is T3, Melanocortin receptor 4 (Homo sapiens, UniProt P32245). The experiment in a line: Concentration for 50% inhibition of human melanocortin-4 receptor expressed in CHO cells using [125I]NDP-alpha-MSH as radioligand. It is filed as cell-based.
T3 sequence (P32245 whole entry): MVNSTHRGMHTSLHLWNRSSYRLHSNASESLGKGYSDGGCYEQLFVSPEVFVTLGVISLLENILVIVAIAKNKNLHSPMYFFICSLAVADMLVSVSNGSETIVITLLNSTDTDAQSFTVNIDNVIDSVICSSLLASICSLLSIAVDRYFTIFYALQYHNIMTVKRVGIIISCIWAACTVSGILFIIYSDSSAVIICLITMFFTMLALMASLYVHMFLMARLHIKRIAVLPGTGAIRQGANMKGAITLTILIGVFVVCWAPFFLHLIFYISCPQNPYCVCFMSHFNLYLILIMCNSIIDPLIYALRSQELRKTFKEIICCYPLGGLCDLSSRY
The target of data set [4] is T3, Melanocortin receptor 4. As to the kind of experiment: Effective concentration towards human melanocortin-4 receptor mediated cAMP accumulation in CHO cells. It is filed as functional, cell-based.
Data set [5] addresses T2, Melanocortin receptor 5. As to the kind of experiment: Effective concentration towards human melanocortin-5 receptor mediated cAMP accumulation in CHO cells. It is filed as functional, cell-based.
Data set [6] deals with Melanocortin receptor 3 (Rattus norvegicus) (UniProt P32244). The experiment in a line: Concentration of compound at 50% maximum cAMP accumulation at rat melanocortin-3 receptor. It is filed as functional.
Chain of Melanocortin receptor 3 (Rattus norvegicus) (P32244 whole entry): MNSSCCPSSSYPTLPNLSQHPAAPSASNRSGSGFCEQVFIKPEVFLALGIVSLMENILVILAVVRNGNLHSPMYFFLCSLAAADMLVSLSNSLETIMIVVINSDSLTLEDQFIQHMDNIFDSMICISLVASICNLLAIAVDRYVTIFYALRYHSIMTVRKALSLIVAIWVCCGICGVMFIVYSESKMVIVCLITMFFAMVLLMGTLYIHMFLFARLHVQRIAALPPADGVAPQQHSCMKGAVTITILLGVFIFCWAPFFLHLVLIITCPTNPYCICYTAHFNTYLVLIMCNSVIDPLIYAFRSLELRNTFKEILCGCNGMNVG
The target in data set [7] is Melanocortin receptor 4 (Rattus norvegicus) (UniProt P70596). As to the kind of experiment: Concentration of compound at 50% maximum cAMP accumulation at rat melanocortin-4 receptor. It is filed as functional.
Chain of Melanocortin receptor 4 (Rattus norvegicus) (P70596 whole entry): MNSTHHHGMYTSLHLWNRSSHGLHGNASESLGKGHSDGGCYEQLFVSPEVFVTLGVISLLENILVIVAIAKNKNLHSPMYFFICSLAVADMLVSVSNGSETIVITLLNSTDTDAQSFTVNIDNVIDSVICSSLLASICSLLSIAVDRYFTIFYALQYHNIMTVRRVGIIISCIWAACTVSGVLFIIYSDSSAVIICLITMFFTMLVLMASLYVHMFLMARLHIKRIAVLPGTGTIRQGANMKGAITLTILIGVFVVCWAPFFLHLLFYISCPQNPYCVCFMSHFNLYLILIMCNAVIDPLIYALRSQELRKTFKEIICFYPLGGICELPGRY
For data set [8], the target named is T4, Melanocyte-stimulating hormone receptor (Homo sapiens, UniProt Q01726). The experiment in a line: Concentration of compound at 50% maximum cAMP accumulation at human melanocortin-1 receptor. It is filed as functional.
Target sequence in this assay (Q01726 whole entry, looked up): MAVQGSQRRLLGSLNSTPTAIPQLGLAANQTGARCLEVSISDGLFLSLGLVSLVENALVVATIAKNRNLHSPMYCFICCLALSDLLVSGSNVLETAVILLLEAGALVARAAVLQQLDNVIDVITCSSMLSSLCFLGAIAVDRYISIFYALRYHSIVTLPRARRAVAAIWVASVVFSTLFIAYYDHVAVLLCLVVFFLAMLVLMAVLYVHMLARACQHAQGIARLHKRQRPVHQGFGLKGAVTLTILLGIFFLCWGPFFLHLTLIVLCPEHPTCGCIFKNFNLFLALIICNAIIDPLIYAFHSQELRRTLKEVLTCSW
Data set [9] addresses Melanocortin receptor 4 (Mus musculus) (UniProt P56450). The experiment in a line: Concentration of compound at 50% maximum cAMP accumulation at mouse melanocortin-4 receptor. It is filed as functional.
Data set [10] deals with T1, Melanocortin receptor 3. As to the kind of experiment: Effective concentration towards human melanocortin-3 receptor mediated cAMP accumulation in CHO cells. It is filed as functional, cell-based, Rattus norvegicus.
Data set [11] is described as follows: Percentage of cAMP accumulation at 10 uM of compound relative toa-MSH was determined. It is filed as functional.
The target in data set [12] is T4, Melanocyte-stimulating hormone receptor. As to the kind of experiment: Concentration for 50% inhibition of human melanocortin-1 receptor expressed in CHO cells using [125I]-NDP-alpha-MSH as radioligand. It is filed as cell-based.
Target sequence in this assay (Q01726 whole entry): as the sequence (Q01726 whole entry, looked up) above
The target in data set [13] is T1, Melanocortin receptor 3. The experiment in a line: Concentration for 50% inhibition of human melanocortin-3 receptor expressed in CHO cells using [125I]NDP-alpha-MSH as radioligand. It is filed as cell-based.
The target in data set [14] is T2, Melanocortin receptor 5. The experiment in a line: Concentration for 50% inhibition of human melanocortin-5 receptor expressed in CHO cells using [125I]NDP-alpha-MSH as radioligand. It is filed as cell-based.
Data set [15] has as its target T4, Melanocyte-stimulating hormone receptor. The experiment in a line: Effective concentration towards human melanocortin-1 receptor mediated cAMP accumulation in CHO cells. It is filed as functional, cell-based.
Target sequence in this assay (Q01726 whole entry): as the sequence (Q01726 whole entry, looked up) above
For the next data set, the system named is Rattus norvegicus. As to the kind of experiment: Percent increase in erectile activity in rats after intravenous administration of 3 mg/kg compound. It is filed as functional.
Data set [16] can be described thus: Half life at 1 mg/kg intravenous administration and 2 mg/kg peroral administration. It is filed as ADME, organism-based. Particulars: cercopithecidae, in vivo.
Data set [17] is described as follows: Half life at 1 mg/kg intravenous administration and 5 mg/kg peroral administration. It is filed as ADME, organism-based. The settings on record: rat, in vivo.
A short description of data set [18]: Clearance at 1 mg/kg intravenous administration and 2 mg/kg peroral administration. It is filed as ADME, organism-based. The settings on record: cercopithecidae, in vivo.
The nature of data set [19]: Clearance at 1 mg/kg intravenous administration and 5 mg/kg peroral administration. It is filed as ADME, organism-based. The settings on record: rat, in vivo.
A short description of data set [20]: Clearance at 0.5 mg/kg intravenous administration and 2 mg/kg peroral administration. The settings on record: dog, in vivo. It is filed as ADME, organism-based, Canis lupus familiaris.
Data set [21] is described as follows: Half life at 0.5 mg/kg intravenous administration and 2 mg/kg peroral administration. It is filed as ADME, organism-based, Canis lupus familiaris. The settings on record: dog, in vivo.
Data set [22] is described as follows: Vdss at 1 mg/kg intravenous administration and 2 mg/kg peroral administration. It is filed as ADME, organism-based. The settings on record: cercopithecidae, in vivo, read-out: Vdss.
Data set [23] is described as follows: Vdss at 1 mg/kg intravenous administration and 5 mg/kg peroral administration. It is filed as ADME, organism-based. The settings on record: rat, in vivo, read-out: Vdss.
Data set [24] can be described thus: Vdss at 0.5 mg/kg intravenous administration and 2 mg/kg peroral administration. It is filed as ADME, organism-based, Canis lupus familiaris. The settings on record: dog, in vivo, read-out: Vdss.
A short description of data set [25]: Maximum time taken by the compound at 1 mg/kg intravenous administration and 2 mg/kg peroral administration. It is filed as ADME, organism-based. The settings on record: cercopithecidae, in vivo, po.
Data set [26] in a line: Maximum time taken by the compound at 1 mg/kg intravenous administration and 5 mg/kg peroral administration. The settings on record: rat, in vivo, po. It is filed as ADME, organism-based.
The nature of data set [27]: Maximum time taken by the compound at 0.5 mg/kg intravenous administration and 2 mg/kg peroral administration. Particulars: dog, in vivo, po. It is filed as ADME, organism-based, Canis lupus familiaris.
A short description of data set [28]: Percent bioavailability at 1 mg/kg intravenous administration and 2 mg/kg peroral administration. It is filed as ADME, organism-based. Particulars: cercopithecidae, in vivo, po.
Data set [29] is described as follows: Percent bioavailability at 1 mg/kg intravenous administration and 5 mg/kg peroral administration. It is filed as ADME, organism-based. The settings on record: rat, in vivo, po.
The nature of data set [30]: Percent bioavailability at 0.5 mg/kg intravenous administration and 2 mg/kg peroral administration. The settings on record: dog, in vivo, po. It is filed as ADME, organism-based, Canis lupus familiaris.

Chain of Melanocortin receptor 4 (Mus musculus) (P56450 whole entry): as the sequence (P70596 whole entry) above, with H21Y, S36P, T199S, A239T, P329S, G330S counted along it

Take `CC(C)(C)NC(=O)C1(C2CCCCC2)CCN(C(=O)[C@@H](Cc2ccc(F)cc2)NC(=O)[C@@H]2CN(CC(F)F)CCN2)CC1`: the cAMP accumulation on Melanocortin receptor 3 [1] was 6%; on Melanocortin receptor 5 [2], 19%. On Melanocortin receptor 4 [3], this compound came in with an IC50 of 13 nM. In addition, the EC50 on Melanocortin receptor 4 [4] was found to be 52 nM; at Melanocortin receptor 5 [5] it was 510 nM.

`CC(C)CN1CCN[C@H](C(=O)N[C@H](Cc2ccc(F)cc2)C(=O)N2CCC(C(=O)NC(C)(C)C)(C3CCCCC3)CC2)C1`: the cAMP accumulation on Melanocortin receptor 3 [1] came to 19%; at Melanocortin receptor 5 [2], 22%. The same compound returned an IC50 on Melanocortin receptor 4 [3] of 8 nM. Also, the EC50 is 34 nM on Melanocortin receptor 4 [4] and 340 nM on Melanocortin receptor 5 [5].

In the case of `CCN1CCN[C@H](C(=O)N[C@H](Cc2ccc(F)cc2)C(=O)N2CCC(C(=O)NC(C)(C)C)(C3CCCCC3)CC2)C1`, the cAMP accumulation turned out to be 3% at Melanocortin receptor 3 [1] and 20% on Melanocortin receptor 5 [2]. The same compound had an IC50 on Melanocortin receptor 4 [3] of 20 nM. The EC50 at Melanocortin receptor 4 [4] worked out at 52 nM; on Melanocortin receptor 5 [5], 840 nM.

Consider `CN1CCN[C@H](C(=O)N[C@H](Cc2ccc(F)cc2)C(=O)N2CCC(C(=O)NC(C)(C)C)(C3CCCCC3)CC2)C1`, for which the cAMP accumulation in data set [6] came to 21%; in [7] it was 76%; in [8] it was 85%; at Melanocortin receptor 3 [1], 11%; at Melanocortin receptor 5 [2], 32%; in data set [9] it was 66%. In addition, the EC50 at Melanocortin receptor 3 [10] is 990 nM; in data set [15] it was 350 nM; at Melanocortin receptor 4 [4], 11 nM (2×) and 6 nM and 16 nM; at Melanocortin receptor 5 [5], 1900 nM; at Melanocortin receptor 5 [5] (cho) it was 1900 nM. In [11], the Activation was 4% and 7% and 11%. Besides, the IC50 is 1700 nM in data set [12]; 2300 nM and 1100 nM and 1600 nM at Melanocortin receptor 3 [13]; 8 nM and 7 nM and 16 nM (2×) at Melanocortin receptor 4 [3]; 2400 nM and 13000 nM at Melanocortin receptor 5 [14]. In the data set with Rattus norvegicus, the Activity amounted to 21.2%. In addition, the values for the half-life in [16], in [17] and in data set [21] were 1.3 h, 1.6 h and 4.1 h, respectively. For the same compound, the clearance was found to be 15.7 mL/min/kg in data set [18], 48.7 mL/min/kg in [19] and 5.6 mL/min/kg in data set [20]. For the same compound, the Vd was found to be 1.2 L/kg in data set [22], 5.4 L/kg in [23] and 1.2 L/kg in [24]. Also, the Tmax was determined as 5 h in data set [25], 1.54 h in [26] and 0.75 h in [27]. In addition, the bioavailability in data set [28] turned out to be 11%; in data set [29], 9%; in data set [30], 17%.

Take `CN1CCNC[C@H]1C(=O)N[C@H](Cc1ccc(F)cc1)C(=O)N1CCC(C(=O)NC(C)(C)C)(C2CCCCC2)CC1`: the cAMP accumulation at Melanocortin receptor 3 [1] and on Melanocortin receptor 5 [2] was 19% each time. Further, the EC50 on Melanocortin receptor 3 [10] was 2900 nM; on Melanocortin receptor 4 [4], 29 nM; at Melanocortin receptor 5 [5], 3300 nM. The IC50 at Melanocortin receptor 4 [3] was 87 nM.

As to `CN1CCN[C@H](C(=O)N[C@@H](Cc2ccc(F)cc2)C(=O)N2CCC(C(=O)NC(C)(C)C)(C3CCCCC3)CC2)C1`, the cAMP accumulation is 1% on Melanocortin receptor 3 [1] and 3% at Melanocortin receptor 5 [2].

`CN1CCN[C@@H](C(=O)N[C@H](Cc2ccc(F)cc2)C(=O)N2CCC(C(=O)NC(C)(C)C)(C3CCCCC3)CC2)C1`: the results for the cAMP accumulation on Melanocortin receptor 3 [1] and on Melanocortin receptor 5 [2] were 7% and 39%, respectively. The compound also yielded an IC50 on Melanocortin receptor 4 [3] of 52 nM. Besides, the EC50 on Melanocortin receptor 4 [4] is 82 nM; on Melanocortin receptor 5 [5], 2700 nM.

For `C[C@H](N)C(=O)N1CCN[C@H](C(=O)N[C@H](Cc2ccc(F)cc2)C(=O)N2CCC(C(=O)NC(C)(C)C)(C3CCCCC3)CC2)C1`, the cAMP accumulation was 12% at Melanocortin receptor 3 [1] and 27% at Melanocortin receptor 5 [2]. Besides, the IC50 on Melanocortin receptor 4 [3] was 30 nM. Besides, the EC50 turned out to be 270 nM on Melanocortin receptor 4 [4] and 2000 nM on Melanocortin receptor 5 [5].

On to `CC(C)(C)NC(=O)C1(C2CCCCC2)CCN(C(=O)[C@@H](Cc2ccc(F)cc2)NC(=O)[C@@H]2CNCCN2C(=O)OC(C)(C)C)CC1`, for which the cAMP accumulation on Melanocortin receptor 3 [1] was found to be 10%; on Melanocortin receptor 5 [2], 43%. Further, the IC50 at Melanocortin receptor 4 [3] worked out at 18 nM. Besides, the figures for the EC50 at Melanocortin receptor 4 [4] and on Melanocortin receptor 5 [5] were 13 nM and 1800 nM, respectively.
